Source: US20140212493A1, “Highly Bioavailable Composition Containing Eprosartan - Poloxamer Complex or 2-(7-Chloro-5-Methyl-4-Oxo-3-Phenyl-4,5-Dihydro-3H-Pyridazine (4,5-b)Indol-1-yl)-N,N-Dimethylacetamide - Poloxamer Complex” (BVM Holding Co., priority 2003, published 2014)
Structures can show the parent of a compound that is named as a salt.

How the values were obtained:
[1] = Dissolution of EPM and EPM-poloxamer complexes, USP apparatus II, SGF; format: physicochemical; conditions: equivalent to 400 mg dose, SGF without pepsin, 37° C., 25 rpm
Description: (§1) The dissolution rate of the association complex may be carried out using a suitable solvent such as 0.1 N HCl purified water, or simulated gastric fluid, as dissolution medium. The testing is conducted under conditions intended to simulate ingestions at about 37° C. and from about 25 to about 75 rpm. The dissolution may be tested using any method known in the art such as USP apparatus I (a basket apparatus) or USP apparatus II (a paddle apparatus) (USP 27/NF 22, 2004, <711>, page 2303). Samples of the solution are taken at preselected intervals such as at every fifteen minutes up to one hour.
Lutrol F-68, 1.0 gm, and EPM, 1.0 gm, are mixed in a jacketed vessel (KG5) heated to 53° C. while mixing for about 2 hrs. The resulting complex, in the form of free flowing granules, thus formed is allowed cool to room temperature and sieved through a 40 mesh screen. The dissolution of the complex equivalent to the 400 mg dose is determined using USP apparatus II, 900 ml of SGF (simulated gastric fluid without pepsin) as the dissolution medium at 37° C. and 25 rpm.
The dissolution of the complex equivalent to a 400 mg dose is determined using USP apparatus II, in SGF as the dissolution medium at 37° C. and 25 rpm.

[2] = Dissolution of NZ and NZ-poloxamer complex, USP apparatus II, purified water; format: physicochemical; conditions: equivalent to 20mg drug, 1000 ml purified water, 37° C., 75 rpm
Description: as §1
Lutrol F-68 and NZ, 250 mg are mixed in a jacketed vessel (KG 5) and heated to 53° C. while mixing for about 2 hours. The resulting complex thus formed is allowed to cool to room temperature and sieved through a 40 mesh screen. The dissolution of the complex equivalent to 20mg drug is determined using USP apparatus II, 1000 ml of purified water as the dissolution medium at 37° C. and 75 rpm.

% DISSOLVED ([1]; 15 minutes) [%]	% DISSOLVED ([1]; 30 minutes) [%]	% DISSOLVED ([1]; 45 minutes) [%]	% DISSOLVED ([1]; 60 minutes) [%]	% DISSOLVED ([2]; 15 minutes) [%]	% DISSOLVED ([2]; 30 minutes) [%]	% DISSOLVED ([2]; 45 minutes) [%]	% DISSOLVED ([2]; 60 minutes) [%]	SMILES
38.7	51.9	61.3	61.7					CCCCc1ncc(/C=C(\Cc2cccs2)C(=O)O)n1Cc1ccc(C(=O)O)cc1 [EPM, eprosartan mesylate]
				0.65	1.90	2.53	3.14	CN(C)C(=O)Cc1nn(-c2ccccc2)c(=O)c2c1c1ccc(Cl)cc1n2C [NZ, 2-(7-chloro-5-methyl-4-oxo-3-phenyl-4,5 dihydro-3H-pyridazino (4,5-b)-indol-1-yl)-N,N-dimethylacetamide]
